Reference: publication PMC9740939, “A Network-Pharmacology-Combined Integrated Pharmacokinetic Strategy to Investigate the Mechanism of Potential Liver Injury due to Polygonum multiflorum” (Molecules, 2022)
Like-named read-outs stand apart in the source and are kept apart here.

Legend:
[1] = Integrated pharmacokinetics by AUC-based weighting approach; type: in vivo, Sprague–Dawley (SD) rats; conditions: Wj = AUCj0–∞ / sum of AUC0–∞; rats, oral PM 18 g/kg
Description: (§1) Blood samples were collected from the fundus into heparinized 1.5 mL polythene tubes at 5, 15, and 30 min and 1, 2, 4, 8, 12, and 24 h after oral administration of PM (18 g/kg). The blood samples were immediately centrifuged at 3500 rpm for 10 min to obtain plasma. Next, the plasma obtained was prepared for HPLC-QQQ-MS analysis, as described before. The TSG, EG, PG, AE, and EM concentrations in plasma versus time data for each rat were analyzed using Drug and Statistics Software (DAS version 3.2.8, Beijing University of Traditional Chinese Medicine, Beijing, China).
As mentioned before, the concentration–time curve (AUC0–∞) of each constituent was obtained using DAS, and then the integrated concentration was obtain using the following equations [46]: The weighting coefficient for each component was calculated using Equations (1) and (2). The integrated concentrations were then calculated by Equation (3). (1) Wj=AUCj0−∞/∑13AUC0−∞ (2) ∑13AUC0−∞=AUC0−∞1+AUC0−∞2+AUC0−∞3 (3) cT=W1×c1+W2×c2+W3×c3 where ω represents the weighting coefficient, “j” represents the three constituents studied, C1–C3 represent the plasma concentration of the three index components studied, and CT represents the integrated plasma concentration.

[2] = Pharmacokinetic study in rats after oral administration of PM extract (HPLC-QQQ-MS of plasma); type: in vivo, Sprague–Dawley (SD) rats; conditions: oral PM 18 g/kg; for half-life: n = 6, read-out: T1/2z (converted); for MRT last: read-out: MRT0–t; for MRT inf: read-out: MRT0–∞; for Vd/F: read-out: Vz/F
Description: Adult male Sprague–Dawley (SD) rats weighing between 180 g and 220 g were purchased from Beijing Vital River Laboratory Animal Technology Co., Ltd. (Beijing, China). The rats were kept in an animal center with air-conditioning and with a natural light–dark cycle (22 ± 1 °C and 40–50% humidity) with ad libitum access to standard food and water for a week before the experiment. All the animal procedures were in accordance with the Regulations of Experimental Animal Administration issued by the State Committee of Science and Technology of the People’s Republic of China. All the SD rats were fasted for 12 h prior to the experiment but with free access to water.
The assay was performed with an Agilent 1260 high-performance liquid chromatography system combined with Agilent 6470 QQQ MS (Agilent Technologies, CA, USA). Applied Masshunter Qualitative Analysis software (version B.07.00) and Quantitative Analysis software (version 07.00) were used for data acquisition and quantification. Analytes separation was achieved on a reversed-phase C18 column (Agilent Poroshell 120 EC-C18, 3.0 × 50 mm, 2.7 μm), which was protected by a guard column (Agilent EC-C18 3.0 × 5.0 mm, 2.7 μm). A gradient elution program composed of water (A) and acetonitrile (B) with gradient elution was used as follows: 0–1 min, 5% B; 1–3 min, 5–45% B; 3–7 min, 45–60% B; and 7–9 min, 60–95% B. The oven temperature was maintained at 40 °C. The flow rate was set at 0.6 mL/min (with a split ratio of 1:1.8), and the injection volume was 4 μL.
Agilent QQQ MS equipped with an electrospray ionization (ESI) source was used for mass spectrometric detection. MRM mode (negative) was used for performing the quantification of TSG, EG, PG, AE, and EM. The other MS conditions were set as follows: gas temperature, 300 °C, gas flow, 8 L/min; nebulizer, 55 psi; and sheath gas flow, 11 L/min.
A simple pretreatment method for protein precipitation was carried out to clean up the plasma samples prior to LC-MS/MS analysis. The plasma sample was thawed to room temperature. An aliquot of pre-cooled 800 μL of acetonitrile and 100 μL of IS solution (100 ng/mL) was added to a 300 μL plasma sample in a centrifuge tube. The tubes were vortexed for 10 min and spun in a centrifuge at 12,000 rpm for 15 min at 4 °C. The supernatant was transferred into a separate tube and dried using a vacuum concentrator, and the samples were re-dissolved with 100 μL of pure methanol. Next, the tube was vortexed for 10 min and spun in a centrifuge at 12,000 rpm for 15 min at 4 °C again. The supernatant was then injected into the HPLC-QQQ-MS instrument for analysis.
as §1

[3] = Stability of analytes in rat plasma (QC samples, storage and freeze–thaw); type: in vitro ADME; conditions: for Stability in rat plasma (in words): 4 °C for 48 h, −80 °C for 10 days, three freeze–thaw cycles; for Stability Re (%), 4 °C, 48 h / Stability Re (%), −80 °C, 10 Days / Stability Re (%), Three Freeze–Thaw Cycles: rat plasma, n = 6; for Stability Re (%), Three Freeze–Thaw Cycles: −80 °C to 25 °C
Description: Samples for bioanalytical method validation were prepared by spiking 100 μL of blank rat plasma and 100 μL of IS solution in bulk with different standard solutions to obtain appropriate concentrations for serial standard working solutions with the matrix and QC samples (TSG, PG, AE, and EM: 0.50 ng/mL (lower limit of quantitation, LLOQ), 10.0 ng/mL (low quality control, LQC), 200 ng/mL (medium quality control, MQC), and 640 ng/mL (high quality control, HQC); EG: 0.125 ng/mL (LLOQ), 2.50 ng/mL (LQC), 50.0 ng/mL (MQC), and 160 ng/mL (HQC)). All the stock solutions, working solutions, and samples were stored at −80 °C pending use.
Stability experiments were performed to evaluate the stability of the analytes in rat plasma at the LQC, MQC, and HQC under different time and temperature conditions. These included short-term stability (4 °C for 48 h), long-term stability (−80 °C for 10 days), and stability over three freeze–thaw cycles (−80 °C to 25 °C) by analyzing QC samples.

[4] = male, Sprague-Dawley, rat, plasma, po, 18 g/kg, n = 6
[5] = male, Sprague-Dawley, rat, plasma, po, 18 g/kg
[6] = male, Sprague-Dawley, rat plasma, n = 6
[7] = HQC: spiked 640 ng/mL (EG 160 ng/mL)
[8] = LQC: spiked 10.0 ng/mL (EG 2.50 ng/mL)
[9] = MQC: spiked 200 ng/mL (EG 50.0 ng/mL)
[10] = male, Sprague-Dawley, rat plasma, n = 6, read-out: Tmax

With `O=C1c2cccc(O)c2C(=O)c2c(O)cc(CO)cc21` [AE, aloe-emodin] the “Weighting coefficient (AUC0–∞ share)” value [1] was 2.799%, the AUC(0-inf) [2, 4] was 70.3 ± 13.8 ng·h/mL and the half-life [2, 5] was 6.42 ± 2.17 h. It also gave an AUC(0-t) [2, 6] of 64.5 ± 9.4 ng·h/mL, a Cmax [2, 6] of 17.9 ± 2.94 ng/mL and an MRT last [2, 6] of 6.5 ± 1.42 h. For the same compound, the MRT inf [2, 6] was 8.57 ± 3.02 h, the Vd/F [2, 6] was 407 ± 113 L/kg and the CLz/F ([2]; rat plasma, n = 6) was 756 ± 131 mL/min/kg. For the same compound, the Tmax ([2]; rat plasma, n = 6) was 0.25 ± 0.00 h, the “Stability in rat plasma (in words)” value [3] was “stable” and the “Stability Re (%), 4 °C, 48 h” value [3, 7] was 90.21%. For the same compound, the “Stability Re (%), −80 °C, 10 Days” value [3, 7] was 100.1%, the “Stability Re (%), Three Freeze–Thaw Cycles” value [3, 7] was 96.94% and the “Stability Re (%), 4 °C, 48 h” value [3, 8] was 94.77%. For the same compound, the “Stability Re (%), −80 °C, 10 Days” value [3, 8] was 90.27%, the “Stability Re (%), Three Freeze–Thaw Cycles” value [3, 8] was 90.50% and the “Stability Re (%), 4 °C, 48 h” value [3, 9] was 97.05%. For the same compound, the “Stability Re (%), −80 °C, 10 Days” value [3, 9] was 89.62% and the “Stability Re (%), Three Freeze–Thaw Cycles” value [3, 9] was 91.44%.

Work on `Cc1cc(O)c2c(c1)C(=O)c1cc(O)cc(O)c1C2=O` [EM, emodin] yielded an AUC(0-inf) [2, 4] of 1020 ± 300 ng·h/mL, a half-life [2, 5] of 11.1 ± 5.22 h and an AUC(0-t) [2, 6] of 1020 ± 142 ng·h/mL. The Cmax [2, 6] was 388 ± 32.1 ng/mL, the MRT last [2, 6] was 6.82 ± 0.545 h and the Vd/F [2, 6] was 152 ± 51.5 L/kg. For the same compound, the “AUC0–∞” value ([2]; rat plasma, n = 6) was 1041 ± 300.2 ng·h/mL, the CLz/F ([2]; rat plasma, n = 6) was 171 ± 42.3 mL/min/kg and the “MRT0–∞” value ([2]; rat plasma, n = 6) was 12.71 ± 5.092 h. The T1/2z ([2]; rat plasma, n = 6) was 11.1 ± 5.22 h, the “Stability in rat plasma (in words)” value [3] was “stable” and the “Stability Re (%), 4 °C, 48 h” value [3, 7] was 85.19%. The “Stability Re (%), −80 °C, 10 Days” value [3, 7] was 111.7%, the “Stability Re (%), Three Freeze–Thaw Cycles” value [3, 7] was 99.10% and the “Stability Re (%), 4 °C, 48 h” value [3, 8] was 86.36%. For the same compound, the “Stability Re (%), −80 °C, 10 Days” value [3, 8] was 97.48%, the “Stability Re (%), Three Freeze–Thaw Cycles” value [3, 8] was 96.37% and the “Stability Re (%), 4 °C, 48 h” value [3, 9] was 92.05%. For the same compound, the “Stability Re (%), −80 °C, 10 Days” value [3, 9] was 99.40% and the “Stability Re (%), Three Freeze–Thaw Cycles” value [3, 9] was 98.71%.

Work on `COc1cc(O)c2c(c1)C(=O)c1cc(C)cc(OC3OC(CO)C(O)C(O)C3O)c1C2=O` [PG, physcion-8-O-β-D-glucoside] yielded a half-life [2, 5] of 12.3 ± 10.1 h, an AUC(0-inf) [2, 6] of 205 ± 95.6 ng·h/mL and an AUC(0-t) [2, 6] of 146 ± 19.4 ng·h/mL. It also gave a Cmax [2, 6] of 20 ± 2.69 ng/mL, an MRT last [2, 6] of 8.41 ± 1.01 h and an MRT inf [2, 6] of 17.6 ± 13.9 h. For the same compound, the Tmax [2, 10] was 0.25 h, the Vd/F [2, 6] was 242 ± 71.8 L/kg and the CLz/F ([2]; rat plasma, n = 6) was 290 ± 103 mL/min/kg. For the same compound, the T1/2z ([2]; rat plasma, n = 6) was 12.3 ± 10.1 h, the “Stability in rat plasma (in words)” value [3] was “stable” and the “Stability Re (%), 4 °C, 48 h” value [3, 7] was 92.41%. The “Stability Re (%), −80 °C, 10 Days” value [3, 7] was 96.88%, the “Stability Re (%), Three Freeze–Thaw Cycles” value [3, 7] was 98.03% and the “Stability Re (%), 4 °C, 48 h” value [3, 8] was 98.55%. The “Stability Re (%), −80 °C, 10 Days” value [3, 8] was 90.14%, the “Stability Re (%), Three Freeze–Thaw Cycles” value [3, 8] was 88.21% and the “Stability Re (%), 4 °C, 48 h” value [3, 9] was 90.36%. The “Stability Re (%), −80 °C, 10 Days” value [3, 9] was 94.69% and the “Stability Re (%), Three Freeze–Thaw Cycles” value [3, 9] was 94.08%.

For `OCC1OC(Oc2c(O)cc(O)cc2C=Cc2ccc(O)cc2)C(O)C(O)C1O` [TSG, trans-2,3,5,4′-tetrahydroxystilbene-2-O-β-D-glucoside], the “Weighting coefficient (AUC0–∞ share)” value [1] was 30.19%, the half-life [2, 5] was 2.22 ± 1.34 h and the AUC(0-inf) [2, 6] was 758 ± 58.6 ng·h/mL. It also gave an AUC(0-t) [2, 6] of 758 ± 58.9 ng·h/mL, a Cmax [2, 6] of 728 ± 104 ng/mL and an MRT last [2, 6] of 1.22 ± 0.182 h. The MRT inf [2, 6] was 1.23 ± 0.203 h, the Tmax [2, 10] was 0.25 h and the Vd/F [2, 6] was 2000 ± 1270 L/kg. The CLz/F ([2]; rat plasma, n = 6) was 10300 ± 769 mL/min/kg, the “Stability in rat plasma (in words)” value [3] was “stable” and the “Stability Re (%), 4 °C, 48 h” value [3, 7] was 97.86%. For the same compound, the “Stability Re (%), −80 °C, 10 Days” value [3, 7] was 92.72%, the “Stability Re (%), Three Freeze–Thaw Cycles” value [3, 7] was 99.01% and the “Stability Re (%), 4 °C, 48 h” value [3, 8] was 100.1%. The “Stability Re (%), −80 °C, 10 Days” value [3, 8] was 97.92%, the “Stability Re (%), Three Freeze–Thaw Cycles” value [3, 8] was 91.38% and the “Stability Re (%), 4 °C, 48 h” value [3, 9] was 92.13%. For the same compound, the “Stability Re (%), −80 °C, 10 Days” value [3, 9] was 95.95% and the “Stability Re (%), Three Freeze–Thaw Cycles” value [3, 9] was 95.27%.
